Like-named read-outs stand apart in the source and are kept apart here.
What was measured:
[1] = test system: S. epidermidis ATCC 12228; test: Antibacterial assay, optical density of culture in TSB; format: cell-based, Staphylococcus epidermidis; conditions: 18 h; for Difference between optical density before and after culture, S. epidermidis ATCC 12228: 37 °C
Procedure: (§1) Investigations were carried out using different concentrations of solutions from 25 to 250 µM. A 25 µM concentration of the tested derivatives was not enough to inhibit the growth of […]. When the concentration of analogs 7d–7f and 9a–9c increased to 200 µM, the growth of S. aureus ATCC 25923 and S. epidermidis ATCC 12228 was inhibited. Furthermore, the optical density of all compounds remained unchanged after 18 h of bacteria culture. In the case of analogs 7a–7c, the optical density values were between 0.9 and 2.2 when they were cultured with S. aureus ATCC 25923. The bacterial growth was slower compared to the control sample (TSB-culture medium). […] In the case of analog 7c, the optical density increased up to […] after 18 h of the sample culture with both kinds of Gram-positive bacteria. In contrast, the reference sample’s (TSB) optical density increased to 7.5 for S. aureus ATCC 25923, and 4.9 for S. epidermidis ATCC 12228 after 18 h of bacteria culture. […] All of the analog values of the measured optical density were similar to that of the reference sample (5.0–5.1, Table 3).
(§2) Antibacterial analysis was performed using the S. aureus ATCC 25923, S. epidermidis ATCC 12228, and Escherichia coli ATCC 25922 bacteria strains. The test compounds were dissolved in DMSO to obtain a stock solution with a concentration of 5 mM (betulin) or 10 mM (other test compounds). The stock solution was diluted with water to the desired concentration (25–250 µM). Then, 1 mL of the investigated solutions was mixed with 1 mL of culture medium (TSB, Biomaxima, Lublin, Poland) in a sterile glass tube. The initial concentration of bacteria was around 5 × 10^6 CFU/mL. The concentration of bacteria was measured using an optical densitometer before and after 18 h of bacteria culture in glass tubes at 37 °C (incubator POL-EKO, Wodzislaw Slaski, Poland). The investigations were repeated for three independent samples. The control sample was the culture medium without any supplementation.

S. aureus ATCC 25923 = test: as above; format: cell-based, Staphylococcus aureus; conditions: 18 h; for Difference between optical density before and after culture, S. aureus ATCC 25923: 37 °C
Procedure: as §1, §2

[2] = test system: NHDF (Normal Human Dermal Fibroblast cells); test: Cytotoxicity, CCK-8 cell viability assay (safety on normal cells); format: cell-based; conditions: read-out: Activity IC50, NHDF
Procedure: (§3) The obtained new molecular hybrids of BN were screened in order to initially investigate their cytotoxicity as well as examine the relationships between the structure and biological effect. The common element of all of the tested compounds was the presence of a lipophilic moiety (CH2)nTPP^⊕ (n = 3, 4, 5). The research was conducted on two groups of compounds: 28-TPP^⊕ BN and 3,28-bisTPP^⊕ BN. Their cytotoxicity was investigated on two cancer cell lines: HCT 116 (colorectal carcinoma cell line) and MCF-7 (human breast adenocarcinoma cell line). The proliferation of tumor cells treated with the tested compounds (7 and 9) at 12.5–3.125 µM concentrations were determined after 24 h of incubation. Additionally, all compounds were tested against the NHDF cell line (Normal Human Dermal Fibroblast cells) to assess their safety. Half-maximal inhibitory concentrations (IC50) of triphenylphosphonium analogs of BN were determined using a CCK-8 assay and are summarized in Table 2.
(§4) The human colorectal carcinoma cell line (HCT 116) and the human breast adenocarcinoma cell line (MCF-7) cells were purchased from the American Type Culture Collection (ATCC, Manassas, VA, USA). The Normal Human Dermal Fibroblast (NHDF) cells were purchased from Lonza (Dermal Fibroblasts, Lonza, Poland). All cells were cultured under standard conditions at 37 °C in a humidified atmosphere at 5% CO2 in DMEM/F12 medium (PAA) supplemented with 10% of heat-inactivated fetal bovine serum (FBS, EURx, Gdansk, Poland) and antibiotics (penicillin/streptomycin).
(§5) Cells were seeded at 7500 (HCT 116) or 10,000 (MCF-7, NHDF) cells/well in 96-well plates. After 24 h, the culture medium was removed and 100 µL of fresh medium containing the test compounds at 0–12.5 µM concentrations was added to the culture wells. The test compounds were dissolved in DMSO to obtain a stock solution with a concentration of 5 mM (betulin) or 10 mM (other test compounds). The stock solution was diluted with the fresh culture medium to the desired concentration. Controls were cells grown in medium without the addition of test compounds. After 24 h of incubation with the test compounds, 10 µL of CCK-8 reagent (Bimake, Houston, TX, USA) was added to each well. After 2 h, the absorbance of the samples was measured at a wavelength of 450 nm using a microplate reader (Epoch, BioTek Instruments, Winooski, VT, USA). The determinations were conducted in at least three biological replications (each biological replication contained 3 technical replications). The cell viability rate was calculated using CalcuSyn software (version 2.0, Biosoft, Cambridge, UK).

[3] = test system: MCF-7 (human breast adenocarcinoma cell line); test: Cytotoxicity, CCK-8 cell viability assay; format: cell-based; conditions: read-out: Activity IC50, MCF-7
Procedure: as §3, §4
as §5, with “After 24 h, the culture medium was removed and 100 µL of fresh medium containing the test compounds at 0–12.5 µM concentrations was added to the culture wells.” left out

[4] = test system: Escherichia coli ATCC 25922; test: Antibacterial assay, optical density of culture in TSB; format: cell-based; conditions: 37 °C, 18 h; further: key: 0: no difference between samples after 18 h of bacteria culture (bacteria grow was inhibited); neg: negative results (analog BN did not inhibit bacteria growing)
Procedure: as §1, §2

[5] = test system: HCT 116 (colorectal carcinoma cell line); test: Cytotoxicity, CCK-8 cell viability assay; format: cell-based; conditions: Homo sapiens, read-out: Activity IC50, HCT 116
Procedure: as §3, §4, §5

[6] = CCK-8 assay, incubation time 24 h, mean ± SD (n = 3)
[7] = MCF7, CCK-8 assay, incubation time 24 h, mean ± SD (n = 3)
[8] = HCT-116, CCK-8 assay, incubation time 24 h, mean ± SD (n = 3)

Row | Compound | Difference between optical density before and after culture, S. epidermidis ATCC 12228 ([1]; 200 μM) | Difference between optical density before and after culture, S. epidermidis ATCC 12228 ([1]; 250 μM) | Difference between optical density before and after culture, S. aureus ATCC 25923 (S. aureus ATCC 25923; 200 μM) | Difference between optical density before and after culture, S. aureus ATCC 25923 (S. aureus ATCC 25923; 250 μM) | IC50 ([2]; 24 h) | IC50 ([3]; MCF7, 24 h) | Difference between optical density before and after culture, Escherichia coli ATCC 25922 ([4]; 200 μM) | Difference between optical density before and after culture, Escherichia coli ATCC 25922 ([4]; 250 μM) | IC50 ([5]; HCT-116, 24 h) | IC50 [2, 6] | IC50 [3, 7] | IC50 [5, 8] | Inhibition of growth of S. epidermidis ATCC 12228 (in words) ([1]; 250 µM) | Inhibition of growth of S. aureus ATCC 25923 (in words) (S. aureus ATCC 25923; 250 µM)
1 | C=C(C)[C@@H]1CC[C@]2(COC(=O)CCC(=O)OCCCC[P+](c3ccccc3)(c3ccccc3)c3ccccc3)CC[C@]3(C)C(CCC4[C@@]5(C)CC[C@H](OC(=O)CCC(=O)OCCCC[P+](c6ccccc6)(c6ccccc6)c6ccccc6)C(C)(C)C5CC[C@]43C)C12 (stereo partly drawn) [9b, 3,28-O,O’-Bis(3’-(4"-triphenylphosphoniobutyloxycarbonyl)propanoyl)betulin bromide] | 0 | 0 | 0 | 0 | 8.02 ± 0.35 µM | 23.6 ± 0.33 µM | neg | neg | 7.97 ± 0.51 µM |  |  |  |  | 
2 | C=C(C)[C@@H]1CC[C@]2(CO)CC[C@]3(C)[C@H](CC[C@@H]4[C@@]5(C)CC[C@H](O)C(C)(C)[C@@H]5CC[C@]43C)[C@@H]12 [BN, 3-lup-20(29)-ene-3,28-diol, reference compound] | neg | 4.7 McFarland’s scale (CFU/mL) | 5.1 McFarland’s scale (CFU/mL) | 5.6 McFarland’s scale (CFU/mL) |  |  | neg | neg |  | > 12.5 µM | > 12.5 µM | > 12.5 µM |  | 
3 | C=C(C)[C@@H]1CC[C@]2(COC(=O)CCC(=O)OCCCC[P+](c3ccccc3)(c3ccccc3)c3ccccc3)CC[C@]3(C)C(CCC4[C@@]5(C)CC[C@H](OC(C)=O)C(C)(C)C5CC[C@]43C)C12 (stereo partly drawn) [7b, 3-O-Acetyl-28-O’-(3’-(4"-triphenylphosphoniobutyloxycarbonyl)propanoyl)betulin bromide] | neg | 0 | 2.2 McFarland’s scale (CFU/mL) | 0 |  |  | neg | neg |  | 10.7 ± 0.25 µM | 14.3 ± 0.38 µM | 5.77 ± 0.27 µM | greatly inhibited the growth | greatly inhibited the growth
4 | C=C(C)[C@@H]1CC[C@]2(COC(=O)CCC(=O)OCCCCC[P+](c3ccccc3)(c3ccccc3)c3ccccc3)CC[C@]3(C)C(CCC4[C@@]5(C)CC[C@H](OC(C)=O)C(C)(C)C5CC[C@]43C)C12 (stereo partly drawn) [7c, 3-O-Acetyl-28-O’-(3’-(5"-triphenylphosphoniopentyloxycarbonyl)propanoyl)betulin bromide] | neg |  | 1.0 McFarland’s scale (CFU/mL) |  |  |  | neg | neg |  | 11.3 ± 0.53 µM | 15.5 ± 0.92 µM | 6.48 ± 0.04 µM |  | 
5 | C=C(C)[C@@H]1CC[C@]2(COC(=O)CC(C)(C)C(=O)OCCCC[P+](c3ccccc3)(c3ccccc3)c3ccccc3)CC[C@]3(C)C(CCC4[C@@]5(C)CC[C@H](OC(C)=O)C(C)(C)C5CC[C@]43C)C12 (stereo partly drawn) [7e, 3-O-Acetyl-28-O’-(3’,3’-dimethyl-3’-(4"-triphenylphosphoniobutyloxycarbonyl)propanoyl)betulin bromide] | 0 | 0 | 0 | 0 |  |  | neg | neg |  |  |  |  |  | 
6 | C=C(C)[C@@H]1CC[C@]2(COC(=O)CCC(=O)OCCCCC[P+](c3ccccc3)(c3ccccc3)c3ccccc3)CC[C@]3(C)C(CCC4[C@@]5(C)CC[C@H](OC(=O)CCC(=O)OCCCCC[P+](c6ccccc6)(c6ccccc6)c6ccccc6)C(C)(C)C5CC[C@]43C)C12 (stereo partly drawn) [9c, 3,28-O,O′-Bis(3’-(5"-triphenylphosphoniopentyloxycarbonyl)propanoyl)betulin bromide] | 0 | 0 | 0 | 0 | 10.6 ± 0.34 µM | 53.3 ± 5.41 µM | neg | neg | 19 ± 0.51 µM |  |  |  |  | 
7 | C=C(C)[C@@H]1CC[C@]2(COC(=O)CC(C)(C)C(=O)OCCC[P+](c3ccccc3)(c3ccccc3)c3ccccc3)CC[C@]3(C)C(CCC4[C@@]5(C)CC[C@H](OC(C)=O)C(C)(C)C5CC[C@]43C)C12 (stereo partly drawn) [7d, 3-O-Acetyl-28-O’-(3’,3’-dimethyl-3’-(3"-triphenylphosphoniopropyloxycarbonyl)propanoyl)betulin bromide] | 0 | 0 | 0 | 0 |  |  | neg | neg |  |  |  |  |  | 

— publication PMC9416257, “Design, Synthesis and Preliminary Evaluation of the Cytotoxicity and Antibacterial Activity of Novel Triphenylphosphonium Derivatives of Betulin” (Molecules, 2022)
